From patent US8501153B2, “Active enantiomer” (GE Healthcare Limited, priority 2009, dated 2013)
Like-named read-outs stand apart in the source and are kept apart here.

Tests used:
[1] = In vivo metabolism study (% parent in brain and plasma by HPLC); conditions: for Brain (% parent) 10 min pi / Brain (% parent) 30 min pi / Brain (% parent) 60 min pi: rat brain; for Brain (% parent) 10 min pi / Plasma (% parent) 10 min pi: 10 min post injection; for Brain (% parent) 30 min pi / Plasma (% parent) 30 min pi: 30 min post injection; for Brain (% parent) 60 min pi / Plasma (% parent) 60 min pi: 60 min post injection; for Plasma (% parent) 10 min pi / Plasma (% parent) 30 min pi / Plasma (% parent) 60 min pi: rat plasma
Description: The amount of brain or plasma activity that was due to parent test compound was tested up to 1 hour post-administration.
Adult male Wistar rats (150-200 g) were injected with approximately 20 MBq of test compound. Brain and plasma samples were analysed by HPLC at 10, 30 and 60 minutes pi.

PBR [2] = molecular target: T1, PBR (Rattus norvegicus, UniProt P16257); assay: In vivo blocking assay (biodistribution after pre-administration of PK11195 or non-radioactive analogue); parameters: species or system Wistar rats; conditions: 30 min after injection; for Blood (% of vehicle), PK11195 block / Lungs (% of vehicle), PK11195 block / Muscle (% of vehicle), PK11195 block / Olfactory bulb uptake (% of vehicle), PK11195 block / Striata uptake (% of vehicle), PK11195 block: PK11195 3 mg/kg 5 min before tracer; for Blood (% of vehicle), Non-radioactive Analogue block / Lungs (% of vehicle), Non-radioactive Analogue block / Muscle (% of vehicle), Non-radioactive Analogue block / Olfactory bulb uptake (% of vehicle), Non-radioactive Analogue block / Striata uptake (% of vehicle), Non-radioactive Analogue block: non-radioactive analogue 3 mg/kg 5 min before tracer
T1 construct: Various tissues including brain stem and olfactory bulb were removed from the animals; from tissue; host or cells: Wistar rat, in vivo tissues (A7); frozen sections of brain stem and olfactory bulb (A8)
Description: The in vivo biodistributions of the PET tracer of the invention compared with its associated racemate were tested after pre-administration of their respective non-radioactive analogues, or pre-administration of the known PBR-specific ligand, PK11195.
PK11195 or a non-radioactive analogue (both at 3 mg/kg) was administered 5 min before the radiolabelled test compound.

Wistar rat heart PBR = molecular target: T2, Wistar rat heart PBR (Rattus norvegicus, UniProt P16257); assay: In vitro potency assay, competition binding against [3H]PK-11195, rat heart PBR
T2 construct: from tissue; host or cells: Wistar rat heart
Description: (§1) Affinity for PBR was screened using a method adapted from Le Fur et al (Life Sci. 1983; USA 33: 449-57). Non-radioactive analogues of the PET tracer of the invention and the associated racemate were tested. Each test compound (dissolved in 50 mM Tris-HCl, pH 7.4, 10 mM MgCl2 containing 1% DMSO) competed for binding to either Wistar rat heart PBR or human PBR against 0.3 nM [^3H] PK-11195. The reaction was carried out in 50 mM Tris-HCl, pH 7.4 10 mM MgCl2 for 15 minutes at 25° C.

human PBR = human PBR (Homo sapiens, UniProt P30536); assay: In vitro potency assay, competition binding against [3H]PK-11195, human PBR
Description: as §1

PBR [3] = molecular target: T1, PBR; assay: Facial nerve axotomy model of inflammation, in vitro autoradiography of tissue sections; assay type: binding, Wistar rats; conditions: for Naïve brain stem % specific binding, Unlabelled ligand / Olfactory bulb % specific binding, Unlabelled ligand / FNA brain stem % specific binding, Unlabelled ligand: blocked with non-radioactive PET tracer at 1 μM; for Naïve brain stem % specific binding, PK11195 / Olfactory bulb % specific binding, PK11195 / FNA brain stem % specific binding, PK11195: blocked with non-radioactive PK11195 at 1 μM; for FNA brain stem % specific binding, Unlabelled ligand / FNA brain stem % specific binding, PK11195: facial nerve axotomy
Description: Binding to a focal site of neuroinflammation was tested by autoradiography.
Male Wistar rats (200-300 g) were either used naïve, or underwent a facial nerve axotomy according to the procedure described by Graeber and Kreutzberg (J Neurocytol 1986; 15: 363-373). Various tissues including brain stem and olfactory bulb were removed from the animals and rapidly frozen in isopentane then stored at −70° C. until use. Tissues were sectioned (12 μm) and thaw-mounted onto Superfrost Plus slides. Slides were stored at −70° C. until use.
The slides were air dried prior to pre-incubation in Tris-HCl buffer (170 mM, pH 7.4) for 5 min at room temperature. 1000-fold excess of non-radioactive PK11195 at 1 μM, or non-radioactive PET tracer of the invention at 1 μM was added prior to incubation with Tris-HCl buffer (170 mM, pH 7.4) containing […] of test compound for 60 minutes. The reaction was then terminated by rinsing the sections two times for 5 mins each in ice-cold buffer (Tris-HCl, 170 mM, pH 7.4) and then the slides were dipped briefly in distilled water to rinse. Next the slides were dried in air and exposed to x-ray film. When exposing to x-ray film, a reference standard was included, for in vitro autoradiography a reference sample (20μ) was taken from the solution and placed on filter paper (taped onto a glass) and exposed together with the sections. The film was exposed for 24 hours and the data were analysed by drawing regions of interest around the specific anatomic structures as well as around the blocked samples, references and background using MCID software using a density gradient scale as a calibration curve adjusted to the reference sample.

In vivo biodistribution = conditions: for OB:Str 30 min: olfactory bulb to striata ratio; for OB:Str 30 min / OB 30 min: 30 min after injection; for OB 30 min: olfactory bulb, i.v.; for OB 30 min / Brain 2 min: rat; for Brain 2 min: i.v. tail vein, 2 min after injection
Description: Adult male Wistar rats (200-300 g) were injected with 1-3 MBq of test compound via the lateral tail vein. At 2, 10, 30 or 60 min (n=3) after injection, rats were euthanised and tissues or fluids were sampled for radioactive measurement on a gamma counter.

[4] = In vitro chiral stability assay in human plasma; assay type: in vitro ADME; conditions: non-radioactive; 37° C., 4 hours; chiral HPLC
Description: (§2) The non-radioactive PET tracer of the invention obtained according to Example 2 was incubated (37° C.) in human plasma or in rat liver S9 fraction up to 4 hours. The enantiomers were extracted from the biological material by precipitation of proteins. The solid precipitate was separated from the liquid phase, which was evaporated to dryness. The dry residue was dissolved in acetonitrile.
(§3) A Dionex Ultimate 3000 HPLC system consisting of two pumps (micro pump LPG-3000 and Ultimate 3000 pump), a UV/visible detector, an auto sampler and two switching valves was applied in this study. One switching valve was connecting the two pumps and the auto sampler. This set-up made it possible to use either of the pumps to inject into the column. The pump used for injection was connected to the SPE column only. After the injection and elution the SPE column was washed using the injection pump. The system was made ready for a new injection while the chiral analysis was ongoing.
(§4) The other switching valve connected the analytical column and the SPE column. […]
(§5) Elution from the SPE column and separation: The elution started using mobile phase mixture of 10% MeCN and 90% 10 mM ammonium acetate. […] The analytical column was washed for 3 min using 70% MeCN/MeOH and then stabilized at 10% MeCN/MeOH to make the separation system ready for the next injection. […]

[5] = In vitro chiral stability assay in rat liver S9 fraction; assay type: in vitro ADME; conditions: non-radioactive; 37° C., 4 hours; chiral HPLC
Description: as §2, §3, §4, §5

[6] = non-radioactive analogues tested, against 0.3 nM [3H]PK-11195, 15 minutes at 25° C., read-out: Rat Heart Ki
[7] = non-radioactive analogues tested, against 0.3 nM [3H]PK-11195, 15 minutes at 25° C., read-out: Human Ki

Sequence of human PBR (P30536 whole entry): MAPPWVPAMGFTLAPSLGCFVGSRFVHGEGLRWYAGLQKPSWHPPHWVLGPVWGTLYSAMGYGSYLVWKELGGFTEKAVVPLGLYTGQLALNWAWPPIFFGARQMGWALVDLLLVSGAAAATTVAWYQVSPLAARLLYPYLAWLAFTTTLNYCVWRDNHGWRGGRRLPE

Row | SMILES | Brain (% parent) 10 min pi [1] [% parent] | Brain (% parent) 30 min pi [1] [% parent] | Brain (% parent) 60 min pi [1] [% parent] | Plasma (% parent) 10 min pi [1] [% parent] | Plasma (% parent) 30 min pi [1] [% parent] | Plasma (% parent) 60 min pi [1] [% parent] | Blood (% of vehicle), PK11195 block (PBR [2]) | Lungs (% of vehicle), PK11195 block (PBR [2]) | Muscle (% of vehicle), PK11195 block (PBR [2]) | Olfactory bulb uptake (% of vehicle), PK11195 block (PBR [2]) | Striata uptake (% of vehicle), PK11195 block (PBR [2]) | Blood (% of vehicle), Non-radioactive Analogue block (PBR [2]) | Lungs (% of vehicle), Non-radioactive Analogue block (PBR [2]) | Muscle (% of vehicle), Non-radioactive Analogue block (PBR [2]) | Olfactory bulb uptake (% of vehicle), Non-radioactive Analogue block (PBR [2]) | Striata uptake (% of vehicle), Non-radioactive Analogue block (PBR [2]) | Naïve brain stem % specific binding, Unlabelled ligand (PBR [3]) [% specific binding] | OB:Str 30 min (In vivo biodistribution) | OB 30 min (In vivo biodistribution) [% ID/g] | Brain 2 min (In vivo biodistribution) [% ID/g] | other results
1 | CCN(CC)C(=O)C1CCCc2c1c1c(OC)cccc1n2CC[18F] (racemic) [Racemate] | 100 ± 0 | 97 ± 1 | 91 ± 2 | 81 ± 4 | 49 ± 12 | 28 ± 1 | 247 % of vehicle | 13 % of vehicle | 90 % of vehicle | 37 % of vehicle | 114 % of vehicle | 289 % of vehicle | 11 % of vehicle | 140 % of vehicle | 59 % of vehicle | 124 % of vehicle | 21 | 3.0 | 0.36 | 0.52 | Ki (Wistar rat heart PBR): 1.47 nM; Ki (human PBR): 11.5 nM; Olfactory bulb % specific binding, Unlabelled ligand (PBR [3]): 59 % specific binding; Naïve brain stem % specific binding, PK11195 (PBR [3]): 13 % specific binding; Olfactory bulb % specific binding, PK11195 (PBR [3]): 67 % specific binding; FNA brain stem % specific binding, Unlabelled ligand (PBR [3]): 72 % specific binding; FNA brain stem % specific binding, PK11195 (PBR [3]): 69 % specific binding
2 | CCN(CC)C(=O)[C@@H]1CCCc2c1c1c(OC)cccc1n2CC[18F] [Alternative Enantiomer] | – | – | – | – | – | – | – | – | – | – | – | – | – | – | – | – | – | 2.9 | 0.23 | 0.53 | Ki (Wistar rat heart PBR; [6]): 3.87 nM; Ki (human PBR; [7]): 14.1 nM
3 | CCN(CC)C(=O)[C@H]1CCCc2c1c1c(OC)cccc1n2CC[18F] [PET Tracer of Invention] | 98 ± 2 | 96 ± 2 | 94 ± 2 | 70 ± 18 | 41 ± 16 | 21 ± 5 | 289 % of vehicle | 14 % of vehicle | 131 % of vehicle | 43 % of vehicle | 117 % of vehicle | 253 % of vehicle | 12 % of vehicle | 143 % of vehicle | 37 % of vehicle | 114 % of vehicle | 70 | 3.2 | 0.45 | 0.53 | racemisation after incubation in human plasma [4]: No racemisation was observed; Ki (Wistar rat heart PBR; [6]): 0.87 nM; Ki (human PBR; [7]): 9.17 nM; Olfactory bulb % specific binding, Unlabelled ligand (PBR [3]): 77 % specific binding; Naïve brain stem % specific binding, PK11195 (PBR [3]): 70 % specific binding; Olfactory bulb % specific binding, PK11195 (PBR [3]): 75 % specific binding; FNA brain stem % specific binding, Unlabelled ligand (PBR [3]): 86 % specific binding; FNA brain stem % specific binding, PK11195 (PBR [3]): 86 % specific binding; racemisation after incubation in rat liver S9 fraction [5]: did not racemise
